Experimental data published in the supplement of paper PMC11061612.

Key:
[1] = compound: CN(C)CCCOc1ccc(-c2ccc3ncc4c(c3c2)n(C2CCOCC2)c(=O)n4C)cn1 [AZD0156]; details: max 3 µM
Method in brief: (§1)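 Cancer cell lines in 1536-well plates (7.5 μl DMEM/F12 or RPMI, 10% FBS) were held 24 hours at 37°C and 5% CO2 and then dosed for 72 hours at a final DMSO of typically 0.2%. Viability was taken from CellTiter-Glo 2.0 luminescence, scaled between blank-well and DMSO-well means. Curves were fitted as two-parameter logistic models with a non-linear mixed effects model, from which the single-agent IC50 was taken.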

[2] = compound: Cc1cc2ncnn2cc1Nc1ncc2c(n1)n(C1CCOCC1)c(=O)n2C [AZD7648]; details: max 10 µM
Method in brief: as §1

[3] = compound: CC(=O)c1c(C)c2cnc(Nc3ccc(N4CCNCC4)cn3)nc2n(C2CCCC2)c1=O [Palbociclib]; details: max 10 µM
Method in brief: as §1

[4] = compound: CC(=O)Nc1cccc(-n2c(=O)n(C3CC3)c(=O)c3c(Nc4ccc(I)cc4F)n(C)c(=O)c(C)c32)c1 [Trametinib]; details: max 1 µM
Method in brief: as §1

[5] = compound: Cn1cnc2c(F)c(Nc3ccc(Br)cc3Cl)c(C(=O)NOCCO)cc21 [Selumetinib]; details: max 10 µM
Method in brief: as §1

[6] = compound: COc1cc2ncnc(Nc3ccc(F)c(Cl)c3)c2cc1OCCCN1CCOCC1 [Gefitinib]; details: max 10 µM
Method in brief: as §1

[7] = compound: CC1=CN2[C@@H](C1)C=NC3=CC(=C(C=C3C2=O)OC)OCCCCCOC4=C(C=C5C(=C4)N=C[C@@H]6CC(=CN6C5=O)C)OC [SG3199]; details: max 0.001 µM
Method in brief: as §1

[8] = compound: C1CN(CCC1(C(=O)N[C@@H](CCO)C2=CC=C(C=C2)Cl)N)C3=NC=NC4=C3C=CN4 [Capivasertib]
Method in brief: as §1

[9] = compound: CS(=O)(=O)CCNCc1ccc(-c2ccc3ncnc(Nc4ccc(OCc5cccc(F)c5)c(Cl)c4)c3c2)o1 [Lapatinib]; details: max 10 µM
Method in brief: as §1

[10] = compound: CC1=C(C(=CC=C1)Cl)NC(=O)C2=CN=C(S2)NC3=CC(=NC(=N3)C)N4CCN(CC4)CCO [Dasatinib]; details: max 2 µM
Method in brief: as §1

[11] = compound: Cc1nc(-c2cn3c(n2)-c2ccc(-c4cnn(C(C)(C)C(N)=O)c4)cc2OCC3)n(C(C)C)n1 [Taselisib]; details: max 10 µM
Method in brief: as §1

[12] = compound: COc1cc(Nc2ncc3c(n2)-c2ccc(Cl)cc2C(c2c(F)cccc2OC)=NC3)ccc1C(=O)O [Alisertib]; details: max 10 µM
Method in brief: as §1

[13] = compound: CC(C)n1c(=O)n(C)c2cnc3cc(F)c(-c4ccc(OCCCN5CCCCC5)nc4)cc3c21 [AZD1390]; details: max 0.3 µM
Method in brief: as §1

[14] = compound: COc1cccc2c1C(=O)c1c(O)c3c(c(O)c1C2=O)C[C@@](O)(C(=O)CO)C[C@@H]3O[C@H]1C[C@H](N)[C@H](O)[C@H](C)O1 [Doxorubicin]; details: max 1 µM
Method in brief: as §1

[15] = compound: CCN(CCO)CCCOc1ccc2c(Nc3cc(CC(=O)Nc4cccc(F)c4)[nH]n3)ncnc2c1 [AZD2811]; details: max 1 µM
Method in brief: as §1

[16] = compound: C[C@@H](Oc1cc(-c2cnn(C3CCNCC3)c2)cnc1N)c1c(Cl)ccc(F)c1Cl [Crizotinib]; details: max 10 µM
Method in brief: as §1

[17] = compound: C[C@@H]1COCCN1C2=NC(=NC(=C2)C3(CC3)[S@](=N)(=O)C)C4=C5C=CNC5=NC=C4 [AZD6738]; details: max 10 µM
Method in brief: as §1

[18] = compound: CN(CC[C@H](CSC1=CC=CC=C1)NC2=C(C=C(C=C2)S(=O)(=O)NC(=O)C3=CC=C(C=C3)N4CCC(CC4)[C@H](C5=CC=CC=C5C6=CC=C(C=C6)Cl)O)S(=O)(=O)C(F)(F)F)CCO [AZD4320]; details: max 1 µM
Method in brief: as §1

[19] = compound: Cc1c2c(nn1C)CSCc1cc(n(C)n1)CSc1cc(c3ccccc3c1)OCCCc1c(C(=O)O)n(C)c3c-2c(Cl)ccc13 [AZD5991]; details: max 1 µM
Method in brief: as §1

[20] = compound: C[C@@H](Nc1cc(F)cc(F)c1)c1cc(C(=O)N(C)C)cc2c(=O)cc(N3CCOCC3)oc12 [AZD8186]; details: max 3 µM
Method in brief: as §1

[21] = compound: C[C@@H](c1ccc2nccn2c1)n1nnc2ncc(-c3cnn(C)c3)nc21 [Savolitinib]; details: max 1 µM
Method in brief: as §1

[22] = compound: CC1(C)CCC(CN2CCN(c3ccc(C(=O)NS(=O)(=O)c4ccc(NCC5CCOCC5)c([N+](=O)[O-])c4)c(Oc4cnc5[nH]ccc5c4)c3)CC2)=C(c2ccc(Cl)cc2)C1 [Venetoclax]; details: max 1 µM
Method in brief: as §1

[23] = compound: CCc1c2c(nc3ccc(O)cc13)-c1cc3c(c(=O)n1C2)COC(=O)[C@]3(O)CC [SN-38]; details: max 0.3 µM
Method in brief: as §1

[24] = compound: C=CCn1c(=O)c2cnc(Nc3ccc(N4CCN(C)CC4)cc3)nc2n1-c1cccc(C(C)(C)O)n1 [AZD1775]; details: max 3 µM
Method in brief: as §1

[25] = compound: COc1nnc2ccc(N3CCC(c4ccc(OCCN5CCN(C)C(=O)[C@H]5C)cc4)CC3)nn12 [AZD5153]; details: max 1 µM
Method in brief: as §1

[26] = compound: COc1cccc(OCCCN)c1-c1cc(Nc2cnc(C#N)cn2)n[nH]1 [Prexasertib]; details: max 1 µM
Method in brief: as §1

[27] = compound: O=C(c1cc(Cc2n[nH]c(=O)c3ccccc23)ccc1F)N1CCN(C(=O)C2CC2)CC1 [Olaparib]
Method in brief: as §1

Cell Line	IC50, cell viability 72 h [1]	IC50, cell viability 72 h [2]	IC50, cell viability 72 h [3]	IC50, cell viability 72 h [4]	IC50, cell viability 72 h [5]	IC50, cell viability 72 h [6]	IC50, cell viability 72 h [7]	IC50, cell viability 72 h ([8]; max 10 µM)	IC50, cell viability 72 h [9]	IC50, cell viability 72 h [10]	IC50, cell viability 72 h [11]	IC50, cell viability 72 h [12]	IC50, cell viability 72 h [13]	IC50, cell viability 72 h [14]	IC50, cell viability 72 h [15]	IC50, cell viability 72 h [16]	IC50, cell viability 72 h [17]	IC50, cell viability 72 h [18]	IC50, cell viability 72 h [19]	IC50, cell viability 72 h [20]	IC50, cell viability 72 h [21]	IC50, cell viability 72 h [22]	IC50, cell viability 72 h [23]	IC50, cell viability 72 h [24]	IC50, cell viability 72 h [25]	IC50, cell viability 72 h [26]	IC50, cell viability 72 h ([27]; max 10 µM)	IC50, cell viability 72 h ([8]; max 3 µM)	IC50, cell viability 72 h ([27]; max 3 µM)
8505C (Thyroid Gland Carcinoma)	> 3 µM	> 10 µM	> 10 µM	> 1 µM	> 10 µM	> 10 µM	> 0.001 µM	> 10 µM	> 10 µM	> 2 µM	> 10 µM	> 10 µM	> 0.3 µM	0.565 µM	> 1 µM	> 10 µM	> 10 µM	> 1 µM	> 1 µM	> 3 µM	> 1 µM	> 1 µM	0.0236 µM	1.6 µM	> 1 µM	0.829 µM	> 10 µM		
BICR10 (Oral Cavity Carcinoma)	> 3 µM																							0.413 µM				2.52 µM	> 3 µM
CHSA8926 (Chondrosarcoma)	> 3 µM	> 10 µM	> 10 µM		> 10 µM	> 10 µM	> 0.001 µM	> 10 µM	> 10 µM	0.0608 µM	1.52 µM	> 10 µM	> 0.3 µM	0.703 µM	> 1 µM	9.16 µM	> 10 µM	> 1 µM	> 1 µM	2.24 µM	> 1 µM	> 1 µM	> 0.3 µM	1.27 µM	> 1 µM	> 1 µM	> 10 µM		
DAN-G (Pancreatic Carcinoma)	> 3 µM	> 10 µM	> 10 µM	0.675 µM	> 10 µM	> 10 µM	> 0.001 µM	> 10 µM	> 10 µM	> 2 µM	0.718 µM	> 10 µM	> 0.3 µM	> 1 µM	> 1 µM	> 10 µM	5.49 µM	> 1 µM	> 1 µM	> 3 µM	> 1 µM	> 1 µM	> 0.3 µM	0.405 µM	> 1 µM	0.0727 µM	> 10 µM		
ESO51 (Esophageal Adenocarcinoma)	> 3 µM	> 10 µM	> 10 µM	0.035 µM	> 10 µM	> 10 µM	> 0.001 µM	> 10 µM	> 10 µM	> 2 µM	> 10 µM	> 10 µM	> 0.3 µM	> 1 µM	> 1 µM	0.186 µM	1.79 µM	> 1 µM	> 1 µM	> 3 µM	0.0142 µM	> 1 µM	> 0.3 µM	0.298 µM	0.354 µM	0.0424 µM	> 10 µM		
